This is an account of results in publication PMC9095466 (Nature, 2022).

Molecules are shown by their SMILES. “And” between values parts separate entries of the source, which are not always exact repeats. Equal values may be shown once. Where a name gives a salt, the structure may show the parent alone. Read-outs that look alike come from different tables or passages of the source. *1 amine or outer side, *2 acyl side, *3 side chain or, on linkers, in order; H or OH if unused. Where a SMILES comes first, the peptide text is derived from it. Bridges are numbered along the chain shown (N, C = ends). [ ]: non-standard residue; d: D form. The star is where a group is joined. X1 = CC[C@H](C)[C@@H](N[*:1])[C@@H](O)CC(=O)O[C@H](C(=O)[C@H](C)C(=O)[*:2])C(C)C; NMeY = CN[C@@H](Cc1ccc(O)cc1)C(=O)O; dNMeL = CN[C@H](CC(C)C)C(=O)O; Pyruvoyl = CC(=O)C(=O)*

For one series, the target named is human TMPRSS2 (Homo sapiens, UniProt O15393). Briefly: cell-based. Conditions: for TMPRSS2 activity (%): Figure 1B, single experiments N1-N3; for inhibition at 0.01 µM: Vero C1008, read-out: inhibition of TMPRSS2 activity (reduction of substrate proteolysis).
Chain of human TMPRSS2 (O15393 whole entry): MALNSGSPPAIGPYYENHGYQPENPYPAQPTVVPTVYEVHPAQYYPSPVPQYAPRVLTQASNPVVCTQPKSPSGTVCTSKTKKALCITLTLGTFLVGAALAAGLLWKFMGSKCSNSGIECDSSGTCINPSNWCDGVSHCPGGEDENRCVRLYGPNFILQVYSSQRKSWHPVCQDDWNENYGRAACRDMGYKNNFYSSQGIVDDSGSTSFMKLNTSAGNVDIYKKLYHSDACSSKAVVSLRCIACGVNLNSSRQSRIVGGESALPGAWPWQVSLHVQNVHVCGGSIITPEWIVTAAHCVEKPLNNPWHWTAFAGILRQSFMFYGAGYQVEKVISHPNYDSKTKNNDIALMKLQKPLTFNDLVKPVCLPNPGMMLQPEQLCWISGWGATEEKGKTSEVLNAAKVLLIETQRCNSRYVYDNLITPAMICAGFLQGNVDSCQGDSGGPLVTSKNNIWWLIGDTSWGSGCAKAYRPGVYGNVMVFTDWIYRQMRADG
The subject of series [1] is SARS-CoV-2 lineage B strain (VIDO). Put plainly: microbe, parasite or virus in culture. It counts as cell-based. Conditions: for Nucleocapsid / dsRNA: Figure 2a, two replicates; for Nucleocapsid: DMSO control about 91-94; for dsRNA: DMSO control about 93-95; for inhibition at 0.1 µM: read-out: inhibition of SARS-CoV-2 infection.
The nature of series [2]: Cytotoxicity assay (Cell Titer-Glo 2.0) in Vero E6 cells. The series is classed as cell-based. Conditions: African green monkey, % Viability of Vero E6 cells. Here is the method:
(§1) Calu-3 and Vero E6 cells (2500 or 10,000 cells for samples, 80–20,000 cells for standard curve) were seeded in 96-well plates. Following a 24-h incubation at 37 °C, 5% CO2, cells were washed with D-PBS and compounds added (10 µM) for an additional 24-h incubation. Cellular viability was assessed using Cell Titer-Glo 2.0 Cell Viability Assay (Promega) according to the manufacturer’s instructions. The number of viable cells was extrapolated using the standard curve. Cellular viability in Vero E6 cells was expressed relative (%) to vehicle-treated cells. Data are from four independent experiments (mean ± s.d.).
On the technique in general: Cellular ATP, detected with luciferase, serves as a proxy for viable cell number.

For the next series, the system named is Vero E6 cells. The description is as above. The series is classed as cell-based. The settings on record: 10 μM compound, 24 h, relative to vehicle (DMSO 0.01%); single experiments N1-N4; 10 µM. Here is the method:
as §1

For series [3], the target named is T1, Recombinant human matriptase (Homo sapiens, UniProt Q9Y5Y6).
T1 construct: made in house
T1 sequence (Q9Y5Y6 1-855): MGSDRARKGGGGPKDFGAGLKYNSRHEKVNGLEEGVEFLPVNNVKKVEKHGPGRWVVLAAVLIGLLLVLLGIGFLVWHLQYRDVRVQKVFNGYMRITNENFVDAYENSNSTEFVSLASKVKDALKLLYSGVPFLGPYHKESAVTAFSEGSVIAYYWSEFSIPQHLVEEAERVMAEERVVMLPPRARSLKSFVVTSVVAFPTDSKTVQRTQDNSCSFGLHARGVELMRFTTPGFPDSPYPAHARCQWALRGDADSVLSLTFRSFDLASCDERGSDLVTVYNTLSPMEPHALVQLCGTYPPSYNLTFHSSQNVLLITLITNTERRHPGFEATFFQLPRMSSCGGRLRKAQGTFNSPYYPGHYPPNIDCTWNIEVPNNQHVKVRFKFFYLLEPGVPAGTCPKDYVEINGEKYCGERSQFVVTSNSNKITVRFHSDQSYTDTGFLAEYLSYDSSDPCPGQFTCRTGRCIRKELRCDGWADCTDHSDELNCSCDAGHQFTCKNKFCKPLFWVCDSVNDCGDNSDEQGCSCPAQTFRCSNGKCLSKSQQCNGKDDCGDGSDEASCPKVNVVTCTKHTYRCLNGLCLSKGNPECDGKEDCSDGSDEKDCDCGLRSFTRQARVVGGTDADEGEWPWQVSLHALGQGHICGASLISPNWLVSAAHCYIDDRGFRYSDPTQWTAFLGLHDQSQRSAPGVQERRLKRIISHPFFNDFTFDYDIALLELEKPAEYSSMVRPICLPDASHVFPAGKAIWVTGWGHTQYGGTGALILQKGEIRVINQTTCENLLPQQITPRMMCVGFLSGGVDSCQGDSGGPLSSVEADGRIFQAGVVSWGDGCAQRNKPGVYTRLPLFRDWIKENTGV
Put plainly: Protease selectivity, Ki on recombinant protease. The series is classed as biochemical.

The target in a further series is T2, Recombinant human DESC1 (Homo sapiens, UniProt Q9UL52).
T2 construct: made in house
T2 sequence (Q9UL52 1-423): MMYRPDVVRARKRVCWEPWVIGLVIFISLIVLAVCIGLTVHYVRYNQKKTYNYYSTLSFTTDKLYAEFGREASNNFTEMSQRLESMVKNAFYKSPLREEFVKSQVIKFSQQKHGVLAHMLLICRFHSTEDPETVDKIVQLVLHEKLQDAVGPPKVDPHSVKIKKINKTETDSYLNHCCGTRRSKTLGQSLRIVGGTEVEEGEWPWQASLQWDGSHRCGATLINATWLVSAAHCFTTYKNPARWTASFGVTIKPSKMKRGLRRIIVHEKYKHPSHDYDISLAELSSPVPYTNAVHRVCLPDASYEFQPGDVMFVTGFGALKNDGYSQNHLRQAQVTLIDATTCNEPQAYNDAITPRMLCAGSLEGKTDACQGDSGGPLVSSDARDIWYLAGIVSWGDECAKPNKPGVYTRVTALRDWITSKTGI
Briefly: Protease selectivity, Ki on recombinant protease. It counts as biochemical.

Another series has as its system SARS-CoV-2 (VIDO). The series is classed as cell-based. The arrangement: plaque assay titre, Figure 2c: unit not given beside the values. The settings on record: for reduction of viral titre (plaque assay): supernatant of infected Calu-3 cells, vs DMSO-treated infected control; for plaque assay titre, Figure 2c: replicate columns, listed as Cm.
For series [4], the system named is SARS-CoV-2. The arrangement: method as in PMID 32142651, PMID 33844653. Conditions: adenovirus hACE2 model; cited from earlier work.
Series [5] deals with SARS-CoV-2. The arrangement: method as in PMID 33903855. The settings on record: hospitalized patients with COVID-19; cited from earlier work.
Series [6] concerns SARS-CoV-2. The arrangement: method as in PMID 33495306. Conditions: pneumocyte-like cells; read-out: EC50 against SARS-CoV-2 infection; cited from earlier work.
The mark [7] stands for this setting: 10 nM compound, 24 h, vs untreated/vehicle TMPRSS2-expressing Vero E6 cells.
[8] abbreviates: Severe acute respiratory syndrome coronavirus 2, Calu-3.

As a reminder, the inhibition is the share of the control response that was lost under treatment. In general, viability refers to a read-out of living cells in per cent, often relative to untreated cells. As for `N=C(N)NCCCCC(=O)NC(CCC(N)=O)C(=O)NC(CC1CCCCC1)C(=O)NC(CCCNC(=N)N)C(=O)c1nc2ccccc2s1` (stereo not shown) [Compound N-0678], on human TMPRSS2, the “TMPRSS2 activity (%)” value is 91.6478% and 104.935% and 97.8749%. Also, on human TMPRSS2 (setting [7]), the inhibition at 0.01 µM amounted to 5%. Further, in series [1], the Nucleocapsid is 70.7269 and 93.9071; the dsRNA is 64.9837 and 89.8579. Moreover, the inhibition at 0.1 µM in series [1] (setting [8]) was < 23%. In series [2], the viability at 24 h, 10 µM stood at 113%.
As for `CC(NC(=O)C(CCC(N)=O)NC(=O)C(N)CCCNC(=N)N)C(=O)NC(CCCNC(=N)N)C(=O)c1nc2ccccc2s1` (stereo not shown) [Compound N-0100], the “inhibition of TMPRSS2 activity (reduction of substrate proteolysis)” value at human TMPRSS2 (setting [7]) is on record as “did not inhibit”. The “TMPRSS2 activity (%)” value at human TMPRSS2 was 113.572% and 108.611% and 101.926%. Besides, in series [1], the Nucleocapsid was 59.9825 and 100; the dsRNA was 53.1735 and 98.3497. The inhibition at 0.1 µM in [1] (setting [8]) is < 25%. Besides, the “% Viability of Vero E6 cells” value in the series with Vero E6 cells is 122.116% and 96.727% and 87.5998% and 134.594%.
One may read the Ki as the equilibrium dissociation constant of an inhibitor or competing ligand from its target. The term EC50 denotes the midpoint of the concentration-response curve. Take `CN(C)C(=O)COC(=O)Cc1ccc(OC(=O)c2ccc(NC(=N)N)cc2)cc1` [Camostat mesylate, reference compound]: the “TMPRSS2 activity (%)” value at human TMPRSS2 (listed as Cm) is 51.0758% and 41.2255% and 43.3144%. Besides, the inhibition at 0.01 µM at human TMPRSS2 (setting [7]) came to 56%. Moreover, the Ki in series [3] (mean ± s.d., max concentration 10 µM, read-out: Ki Matriptase) is 5.6 ± 1 nM; in [3] (single experiments N1-N3, Figure 1D, read-out: Individual Ki, Matriptase), 6.79 nM and 5.15 nM and 4.98 nM; on Recombinant human DESC1 (mean ± s.d., max concentration 10 µM, read-out: Ki DESC1) it was 5.8 ± 3.4 nM; at Recombinant human DESC1 (single experiments N1-N3, Figure 1D, read-out: Individual Ki, Desc1) it was 7.88 nM and 7.73 nM and 1.85 nM. In addition, the Nucleocapsid in series [1] (listed as Cm) is 8.612 and 24.2399. Besides, the dsRNA in series [1] (listed as Cm) is 17.4079 and 31.7604. Further, the EC50 in series [1] (Severe acute respiratory syndrome coronavirus 2, Calu-3, read-out: SARS-CoV-2 VIDO Nucleocapsid EC50 ± SE) came out at 10.6 ± 8.4 nM. In addition, in [1] (setting [8]), the inhibition at 0.1 µM is > 83%. The “Figure 2b dose-response, Mean” value in series [1] (log [C] (nM) 0.20412) stood at 84.468; in [1] (log [C] (nM) 0.90309), 76.973; in [1] (log [C] (nM) 1.60206) it was 24.9288; in series [1] (log [C] (nM) 2.30103), 0.8428; in [1] (log [C] (nM) 3), 0.2267; in series [1] (log [C] (nM) -0.49485) it was 80.5882. The “Figure 2b dose-response, Mean” value in series [1] (log [C] (nM) -1.19382) stood at 94.4767. Also, the figures for the “reduction of viral titre (plaque assay)” value in the series with SARS-CoV-2 (VIDO) (40 nM) and with SARS-CoV-2 (VIDO) (200 nM) were “approximately half-log” and “approximately 1.5 log”, respectively. Further, the “plaque assay titre, Figure 2c” value with SARS-CoV-2 (VIDO) (40 nM) was 1000 (6×) and 11000 (2×) and 20000 and 10000 (2×) and 80000 and 330000 and 30000 and 170000; in the series on SARS-CoV-2 (VIDO) (200 nM), 1000 (9×) and 40000 and 10000 (3×) and 130000 and 30000 and 20000. Besides, the “% Viability of Vero E6 cells” value with Vero E6 cells is 115.453% and 94.4731% and 96.0284% and 136.615%. Also, the protection against infection result with SARS-CoV-2 [4] was “no significant protection against infection was observed”. In the series on SARS-CoV-2 [5], the “effect on the time to recovery and incidence of death” value is “no effect”.
As to `CC[C@H](C)[C@H]1NC(=O)[C@@H](NC(=O)[C@@H](CC(C)C)N(C)C(=O)[C@@H]2CCCN2C(=O)C(C)=O)[C@@H](C)OC(=O)[C@H](Cc2ccc(OC)cc2)N(C)C(=O)[C@@H]2CCCN2C(=O)[C@H](CC(C)C)NC(=O)[C@@H](C)C(=O)[C@H](C(C)C)OC(=O)C[C@@H]1O` [Plitidepsin] (Pyruvoyl-P[dNMeL]T[X1]LP[NMeY](Me); ester 3-C), in the series on SARS-CoV-2 [6], the EC50 is 1.62 nM.
